In test [1] the test system is hMSCs. As to the kind of experiment: ECM production by hMSC monolayers (nodules, recovered volume, calcium). Type of test: cell-based, human. The method, then: Micro computer aided tomography (μCT) briefly included scanning of identical calvaria over 360° using a 50 kV beam with a camera resolution of 12 μm. Images were captured every 0.4° with flat field correction and frame averaging enabled. Using mock specimens, grayscale ranges were calibrated over intact bone, partially formed bone and radiolucent tissue over a fixed linear range (corresponding to approximately −100 to +1000 Hounsfield units). Axial reconstructions were generated from the scans and quantified using a appropriate CT software. Once again, each reconstruction parameter was identical and performed over a fixed and linear intensity range in each case so as to reproducibly distinguish bone, partial bone and radiolucent tissue. In each case, ring artifact, smoothing, and beam hardening corrections were enabled. Three dimensional renderings for qualitative appraisal were generated using one or more volume software. Measurements of recovered matrix volume were performed using similar parameters, but the beam power was lowered to 30 kV. For extracellular matrix (ECM) production, hMSC monolayers were treated for 8 days with GW9662 or control OBM media in the usual manner described previously. Mineralizing osteogenic media was then added for a further 10 days with changes every 2 days. Hereafter, all volumes refer to a single 150 cm^2 monolayer culture. Monolayers were washed in PBS and frozen at −80° C. to disrupt cell membranes, thawed to ambient temperature and scraped from the culture plate. Recovered cells and ECM were then pelleted by centrifugation (1,800 G) and suspended in 10 mL of lysis buffer consisting of PBS containing 0.1% (v/v) Triton X100, 1 mM MgCl2, 10 μg mL^−1 DNAse I and 10 μg mL^−1 RNAseA. […] Calcium levels in matrices described were determined using an acid hydrolysis ArsenazoIII method previously described by others. […] Colorimetric determination of calcium was performed by addition of Arsenazo III compound and monitoring the change in absorbance at 595 nm using a plate reader.

The test system of a further test is calvarial defects. The test is described as follows: Histology of 50-day calvaria (H&E, tetracycline tracing, blood vessels). Type of test: in vivo, nude mice. How it is done:
Histochemistry and immunocytochemistry. For β-catenin localization studies, hMSCs were stained with a cy-3 conjugated anti-β-catenin antibody and nuclei were counterstained with pico-green dye. Specimens were processed as paraffin blocks and 8 longitudinal sections were prepared, deparaffinized and rehydrated, then stained with hematoxylin and eosin. For immunocytochemistry, sections were probed with an anti-human β-2-microglobulin antibody. An upright fluorescent microscope fitted with a high performance camera (and image analysis software was employed for imaging. Tetracycline tracing of in vivo calcium deposition. The tetracycline was imaged using an upright fluorescent microscope fitted with a high performance camera and analyzed using software. Embedding, sectioning and mounting was carried out on non-decalcified material. Semi-quantitative blood vessel measurements. Calvaria were fixed, decalcified and sectioned in paraffin and stained with hematoxylin and eosin as described. Using NIS-Elements image analysis software, the surface area of blood vessels in a defined ROI was calculated and totaled. The values were expressed as the mean of total blood vessel area from 3 animals per group. […] Using NIS-Elements image analysis software, the surface area of blood vessels in the 2D ROI was calculated for each section and totaled. […]

Test [2] deals with hMSCs. The test is described as follows: Alkaline phosphatase (ALP) activity of hMSCs in osteogenic media. Type of test: cell-based, human. How it is done: For non-mineralizing osteogenic differentiation, hMSCs were plated in 12-well plates at 100 cells cm^−2. Upon reaching about 70% confluency, the media was changed to osteogenic base media (OBM) containing 50 μg mL^−1 ascorbic acid and 5 mM β-glycerol phosphate and either GW9662 or DMSO. Media was changed every 2 days for 8-10 days following measurement of ALP activity. For this purpose, the monolayer was washed with PBS and then with ALP reaction buffer (100 mM Tris-HCl, pH 9, containing 100 mM KCl and 1 mM MgCl2). One half mL of ALP buffer then 0.5 mL p-nitrophenol phosphate (PNPP) was rapidly added to the wells. ALP activity was measured as the rate of PNPP conversion to p-nitrophenolate by monitoring the absorbance at 405 nm every 30 seconds for 9 minutes using a plate reader. The rates were normalized against cell number and statistically analyzed using one-way analysis of variance (ANOVA) and Tukey post test for multiple comparisons or by Student's t-test, for single, unrelated comparisons.
Early osteogenic differentiation and alkaline phosphatase assays. MSCs were plated in 6-well plates at an initial plating density of 100 cells per cm^2 and cultured in standard complete media for 6 days until semi-confluence (approximately 5,000 cells per cm^2). Osteogenic base media consisting of complete media containing 5 mM β-GP and 50 μg mL^−1 ascorbate-2-phosphate and the appropriate inhibitor or vehicle was then used to induce early osteogenic differentiation. Assays were allowed to proceed for 8-10 days with changes of media every 2 days. ALP assays were performed as previously described (Gunn et al., 2006, Stem Cells 24:986-991).
In order to characterize the influence of 7AIPM on osteogenic differentiation, hMSC's from two donors were cultured as described elsewhere herein with the addition of varying concentrations of the compound or vehicle to the media. Samples of the media were collected daily for analysis. These samples were analyzed for the presence of OPG and Dkk-1 using ELISA. Alkaline phosphatase activity of the monolayers and cell numbers were measured using a spectrophotometer.

Where [3] appears, read: osteogenic media without dexamethasone, 8 days.
[4] abbreviates: osteogenic medium lacking dex, 8 days.

Structures are written as SMILES. Entries after “also recorded” stand apart in the source; their conditions may differ. Where only a bound is given, the exact number is not on record here.

The values below come from patent US9452185B2, “Mesenchymal stem cells and supports for tissue regeneration, repair and reconstruction” (THE TEXAS A&M UNIVERSITY SYSTEM, priority 2009, dated 2016).

`O=C(Nc1ccccc1)c1cc([N+](=O)[O-])ccc1Cl` [GW9662, 2-chloro-5-nitro-N-phenyl-benzamide]: the “calcium content in recovered ECM” value in the test with hMSCs [1] (GW9662 vs DMSO) was “elevated calcium levels; also recorded: substantially more calcium mineral than controls”. Also, the “volume of ECM recovered” value in the test on hMSCs [1] (GW9662 vs vehicle treated cells) was “greater volume of ECM; also recorded: substantial increase in the yield”. Moreover, in the test with hMSCs [1] (hMSC cultures, GW9662 treatment), the “ECM nodules by phase contrast microscopy” value is given as “distinct formation of nodules; also recorded: increased”. In the test with calvarial defects (day 50), the “new bone formation, histology” value is “new bone formation was detected”. Moreover, in the test with calvarial defects (day 50, blood vessels), the “ability of MSCs to initiate angiogenesis at trauma sites” value is “had not affected”. For the same molecule, the ALP activity entry in the test on hMSCs [2] (hMSCs in osteogenic media with GW9662 vs DMSO) is given as “dose-dependent increase; also recorded: substantially upregulated; also recorded: substantially up-regulated; also recorded: increased”; in the test on hMSCs [2] (setting [3]), “induced”. The “dose at which ALP activity dropped back to control levels” value in the test on hMSCs [2] (setting [4]) was > 1.0 µM.
In the case of `O=C1Nc2cc(Br)ccc2/C1=C1/Nc2ccccc2/C1=N\O` [BIO, bromo-indirubin-3′-mono-oxime], the ALP activity entry in the test on hMSCs [2] (setting [3]) is “induced”. For the same molecule, in the test with hMSCs [2] (setting [4]), the “dose at which ALP activity dropped back to control levels” value is “exceeding 400 nM” and the “dose of maximal effect on ALP activity” value lay in the range of 100 to 200 nM.
